# Measured values taken from patent US20060138687A1, “Method of forming particles” (Ferro Corporation, priority 2003, published 2006).
# Experiment: Scanning Electron Microscopy (SEM) analysis of collected particles
# Assay type: physicochemical
# Details: SEM micrograph; particles made by third embodiment (droplets frozen on contact with CO2/ethanol/water extracting fluid at −23° C., solid-liquid extraction)
# Description: The collected particles were analyzed using Scanning Electron Microscopy (SEM). From FIG. 11 it is clear that the GF particles are in the form of non-agglomerated crystals, having an orthorhombic shape. The mean size of the substantially uniform particles is around 5-10 μm.
# Analysis of the porous lactose particles was carried out in the same manner as described in Example 1. FIG. 12 is an SEM micrograph of the lactose particles. […] If desired, these lactose nanocrystals can be obtained simply by crumbling the large porous lactose spheres.
row,Structure (SMILES),mean size of the particles
1,"OC[C@H]1O[C@@H](O[C@H]2[C@H](O)[C@@H](O)C(O)O[C@@H]2CO)[C@H](O)[C@@H](O)[C@H]1O (some centres unmarked) [lactose, Lactose]",20-30 μm
2,"COC1=CC(=O)C[C@@H](C)[C@]12Oc1c(Cl)c(OC)cc(OC)c1C2=O [GF, Griseofulvin]",5-10 μm
